Reference: US9718790B2, “Triazine derivative and pharmaceutical composition having an analgesic activity comprising the same” (SHIONOGI & CO., LTD., priority 2010, dated 2017)
pIC50: −log10 of the molar value.

The molecules below were run against human P2X3 receptor (Homo sapiens (Human), UniProt P56373) (assay: Evaluation of human P2X3 receptor inhibitory activity (Fluo-3 calcium fluorescence, FDSS 3000, ATP stimulation)). Conditions: C6BU-1 cells stably expressing human P2X3 receptor.
Format: cell-based
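Note: stimulus was 50 nM ATP with fluorescence followed for 3 min, and the response per well was peak post-ATP fluorescence divided by the reading at measurement start.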

human P2X3 receptor, sequence (P56373 whole entry): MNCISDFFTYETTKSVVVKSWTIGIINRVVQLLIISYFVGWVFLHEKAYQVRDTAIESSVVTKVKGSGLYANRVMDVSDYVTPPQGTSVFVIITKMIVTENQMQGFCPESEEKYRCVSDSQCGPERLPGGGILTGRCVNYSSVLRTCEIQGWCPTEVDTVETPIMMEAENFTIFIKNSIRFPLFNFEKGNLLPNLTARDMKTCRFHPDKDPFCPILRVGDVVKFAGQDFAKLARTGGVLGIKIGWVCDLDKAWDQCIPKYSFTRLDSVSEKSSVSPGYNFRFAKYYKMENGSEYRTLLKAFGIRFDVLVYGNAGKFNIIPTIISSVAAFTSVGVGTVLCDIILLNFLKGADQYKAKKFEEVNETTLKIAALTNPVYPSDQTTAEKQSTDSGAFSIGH

Compound	pIC50
CCn1c(=O)[nH]/c(=N\c2ccc(Oc3cc(CO)on3)cc2)n(Cc2ccc(Cl)cc2)c1=O [Compound I-1968]	7.82
Cc1[nH]c2ccc(/N=c3\[nH]c(=O)n(CCC(N)=O)c(=O)n3Cc3ccc(Cl)cc3)cc2c1C [Compound I-1966]	7.96
COC(=O)[C@@H](C)Cn1c(=O)[nH]/c(=N\c2ccc(C(=O)C3CC3)cc2)n(Cc2ccc(C)cc2)c1=O [Compound I-1302]	6.77
O=c1ccccn1-c1ccc(/N=c2\[nH]c(=O)n(CCO)c(=O)n2Cc2ccc(Cl)cc2)cc1 [Compound I-2044]	6.90
CC1CCC(Cn2c(=O)n(CCO)c(=O)[nH]/c2=N\c2ccc(Oc3ccnc(O)c3)cc2)CC1 (stereo not shown) [Compound I-2022]	8.15
COC(=O)[C@@H](C)[C@@H](C)n1c(=O)[nH]/c(=N\c2ccc(OC(C)C)c(F)c2)n(Cc2ccc(C)cc2)c1=O [Compound I-1311]	7.64
COC(=O)[C@@H](C)Cn1c(=O)[nH]/c(=N\c2ccc(CCC3CC3)cc2)n(Cc2ccc(C)cc2)c1=O [Compound I-1202]	7.03
COC(=O)[C@@H](C)Cn1c(=O)[nH]/c(=N\c2ccc(OCCO)cc2)n(Cc2ccc(Cl)cc2)c1=O [Compound I-0719]	6.94
COC(=O)c1ccc(Oc2ccc(/N=c3\[nH]c(=O)n(C)c(=O)n3Cc3ccc(C)cc3)cc2)cc1 [Compound I-2030]	8.22
CCc1nc2ccc(/N=c3\[nH]c(=O)n(C[C@H](C)C(=O)OC)c(=O)n3Cc3ccc(Cl)cc3)cc2o1 [Compound I-1326]	6.66
COC(=O)[C@H](C)[C@H](C)n1c(=O)[nH]/c(=N\c2ccc(OC3CCC3)c(C)c2)n(Cc2ccc(Cl)cc2)c1=O [Compound I-1403]	7.30
CCOC(=O)C1(Cn2c(=O)[nH]/c(=N\c3ccc(OC(C)C)c(C)c3)n(Cc3ccc(Cl)cc3)c2=O)CC1 [Compound I-0694]	7.89
COc1cc(/N=c2\[nH]c(=O)n(CC(C)(C)C(=O)O)c(=O)n2Cc2ccc(C)cc2)ccc1OC(C)C [Compound I-1280]	7.57
COC(=O)[C@@H](C)Cn1c(=O)[nH]/c(=N\c2ccc(OC3CCC3)cc2)n(Cc2ccc(C)cc2)c1=O [Compound I-1217]	8.30
Cc1cc(/N=c2\[nH]c(=O)n(C[C@H](C)C(=O)NCCO)c(=O)n2Cc2ccc(Cl)cc2)ccc1OC(C)C [Compound I-0723]	7.62
COC(=O)Cn1cccc(Cn2c(=O)[nH]/c(=N\c3ccc(OC(C)C)c(C)c3)n(Cc3ccc(Cl)cc3)c2=O)c1=O [Compound I-0757]	7.46
COC(=O)C(C)(C)Cn1c(=O)[nH]/c(=N\c2ccc(OCC3CC3)cc2)n(Cc2ccc(Cl)cc2)c1=O [Compound I-1236]	7.89
COC(=O)[C@H](C)[C@H](C)n1c(=O)[nH]/c(=N\c2ccc3oc(C)cc3c2)n(Cc2ccc(C)cc2)c1=O [Compound I-1325]	7.55
C[C@@H](Cn1c(=O)[nH]/c(=N\c2ccc3oc(C(=O)O)cc3c2)n(Cc2ccc(Cl)cc2)c1=O)C(=O)O [Compound I-1952]	6.11
CCOC(=O)C(CNc1ccc(OC(C)C)c(C)c1)Cn1c(=O)[nH]/c(=N\c2ccc(OC(C)C)c(C)c2)n(Cc2ccc(Cl)cc2)c1=O (stereo not shown) [Compound I-0778]	7.08
CCc1nc2ccc(/N=c3\[nH]c(=O)n(C[C@H](C)C(=O)O)c(=O)n3Cc3ccc(Cl)cc3)cc2o1 [Compound I-1382]	6.59
Cn1c(=O)[nH]/c(=N\c2ccc(Oc3ccc(C(=O)O)cc3)cc2)n(Cc2ccc(Cl)cc2)c1=O [Compound I-2063]	6.92

Same assay, conditions: C6BU-1 cells stably expressing human P2X3 receptor, Fluo-3 fluorescence, FDSS 3000

Compound	pIC50
C[C@@H](Cn1c(=O)[nH]/c(=N\c2ccc3c(c2)CCCO3)n(Cc2ccc(Cl)cc2)c1=O)C(=O)O [Compound I-1103]	6.37
CCOc1ccc(/N=c2\[nH]c(=O)n(CC3(C(=O)O)CC3)c(=O)n2Cc2ccc(Cl)cc2)cc1Cl [Compound I-0924]	7.52
CCCCCOc1ccc(/N=c2\[nH]c(=O)n(C[C@H](C)C(=O)OC)c(=O)n2Cc2ccc(C)cc2)cc1 [Compound I-1057]	7.05
CC(C)n1cnc2cc(/N=c3\[nH]c(=O)n([C@@H](C)[C@@H](C)C(=O)O)c(=O)n3Cc3ccc(Cl)cc3)ccc21 [Compound I-1772]	6.53
Cc1cc2cc(/N=c3\[nH]c(=O)n([C@@H](C)[C@@H](C)C(=O)O)c(=O)n3Cc3ccc(Cl)cc3)cc(Cl)c2o1 [Compound I-1588]	7.17
CCN(c1ccc(/N=c2\[nH]c(=O)n(C[C@H](C)C(=O)OC)c(=O)n2Cc2ccc(Cl)cc2)cc1)C(C)C [Compound I-0952]	6.13
CC(C)Oc1ccc(/N=c2\[nH]c(=O)n(CC(CO)(CO)C(=O)O)c(=O)n2Cc2ccc(Cl)cc2)cc1Cl [Compound I-1012]	7.29
Cc1cc(/N=c2\[nH]c(=O)n(C[C@H](C)C(=O)O)c(=O)n2Cc2ccc(Cl)cc2)ccc1C#CC1CC1 [Compound I-1042]	6.83
COC(=O)C(C)(C)Cn1c(=O)[nH]/c(=N\c2ccc3nc(C)sc3c2)n(Cc2ccc(Cl)cc2)c1=O [Compound I-1569]	8.40
CCc1nc2ccc(/N=c3\[nH]c(=O)n(CCCC(=O)O)c(=O)n3Cc3ccc(Cl)cc3)cc2s1 [Compound I-1705]	7.85
CC(C)Oc1ccc(/N=c2\[nH]c(=O)n(CCC(=O)O)c(=O)n2CC2C[C@H]3CC[C@@H]2C3)cc1F (stereo partly shown) [Compound I-1862]	6.26
Cc1ccc(Cn2c(=O)n(CCC(N)=O)c(=O)[nH]/c2=N\c2ccc3nc(C)sc3c2)cc1 [Compound I-1671]	8.22
Cc1ccc(Cn2c(=O)n(CCC(=O)O)c(=O)[nH]/c2=N\c2ccc(OC(C)C)c(C)c2)cc1 [Compound I-1158]	7.20
Cc1ccc(Cn2c(=O)n([C@@H](C)[C@@H](C)C(=O)O)c(=O)[nH]/c2=N\c2ccc(OCC3CC3)c(Cl)c2)cc1 [Compound I-0975]	7.37
COC(=O)[C@@H](C)Cn1c(=O)[nH]/c(=N\c2ccc3oc(C)c(C)c3c2)n(Cc2ccc(Cl)cc2)c1=O [Compound I-1650]	8.05
CCc1oc2ccc(/N=c3\[nH]c(=O)n(CCCNC(=O)C(F)(F)F)c(=O)n3Cc3ccc(Cl)cc3)cc2c1C [Compound I-1567]	7.92
CCc1oc2ccc(/N=c3\[nH]c(=O)n(CC(C)(C)C(=O)O)c(=O)n3Cc3ccc(C)cc3)cc2c1C [Compound I-1582]	8.15

Same assay, conditions: human P2X3 receptor, Test Example 1

Compound	pIC50
CCn1c(=O)[nH]/c(=N\c2ccc(Oc3ccnc(C(=O)O)c3)c(F)c2)n(Cc2ccc(Cl)cc2)c1=O [Compound I-2462]	8.15
CCn1c(=S)[nH]/c(=N\c2ccc(Oc3cncc(C(=O)O)c3)cc2)n(Cc2ccc(Cl)cc2)c1=O [Compound I-2263]	8.40
CCOc1ccc(/N=c2\[nH]c(=O)n(CCC(=O)O)c(=O)n2Cc2ccc(C)cc2)cc1Cl [Compound I-0882]	7.00
CCn1c(=O)[nH]/c(=N\c2ccc(O[C@@H]3C[C@@H](C(=O)OC)N(C(=O)OC(C)(C)C)C3)cc2)n(Cc2ccc(Cl)cc2)c1=O [Compound I-2265]	6.52
C[C@@H](C(N)=O)n1c(=O)[nH]/c(=N\c2ccc(Oc3ccon3)cc2)n(Cc2ccc(Cl)cc2)c1=O [Compound I-2501]	7.24
CCn1c(=O)[nH]/c(=N\c2ccc(Oc3cnc(C#N)cn3)cc2)n(Cc2ccc(Cl)cc2)c1=O [Compound I-2427]	8.70
Cc1ccc(Cn2c(=O)n([C@H](C)CC(=O)O)c(=O)[nH]/c2=N\c2ccc(OC(C)C)c(Cl)c2)cc1 [Compound I-0878]	7.66
COC(=O)c1cccc(Oc2ccc(/N=c3\[nH]c(=O)n(C)c(=O)n3Cc3ccc(C)cc3)cc2)n1 [Compound I-2266]	7.36
Cn1c(=O)[nH]/c(=N\c2ccc(Oc3ccc(C(N)=O)nc3)cc2)n(Cc2ccc(Cl)cc2)c1=O [Compound I-2406]	8.00
CCn1c(=O)[nH]/c(=N\c2ccc(Oc3cccc(Cl)n3)cc2)n(Cc2ccc(Cl)cc2)c1=O [Compound I-2441]	8.00
O=c1[nH]/c(=N\c2ccc(Oc3ccon3)cc2)n(Cc2ccc(F)cc2)c(=O)n1CCCOC1CCCCO1 (stereo not shown) [Compound I-2394]	7.68
CCn1c(=O)[nH]/c(=N\c2ccc(Oc3cc(F)cc(C(N)=O)c3)cc2)n(Cc2ccc(Cl)cc2)c1=O [Compound I-2233]	8.70
CCn1c(=O)[nH]/c(=N\c2ccc(Oc3cc(C#N)ccn3)cc2)n(Cc2ccc(C)cc2)c1=O [Compound I-2300]	8.52
O=c1[nH]/c(=N\c2ccc(Oc3ccsn3)cc2)n(Cc2ccc(Cl)cc2)c(=O)n1C[C@H](O)CO [Compound I-2530]	7.80
COC(=O)[C@@H](C)n1c(=O)[nH]/c(=N\c2ccc(Oc3ccon3)cc2)n(Cc2ccc(Cl)cc2)c1=O [Compound I-2460]	7.46
Cc1nsc(Oc2ccc(/N=c3\[nH]c(=O)n(CC(C)(CO)CO)c(=O)n3Cc3ccc(Cl)cc3)cc2)n1 [Compound I-2576]	8.52
NC(=O)Cn1c(=O)[nH]/c(=N\c2ccc(Oc3cccnn3)cc2)n(Cc2ccc(Cl)cc2)c1=O [Compound I-2689]	7.70
O=C(O)CCn1c(=O)[nH]/c(=N\c2ccc(Oc3cccc(F)n3)cc2)n(Cc2ccc(Cl)cc2)c1=O [Compound I-2653]	8.05
N#CNC(=O)Cn1c(=O)[nH]/c(=N\c2ccc(Oc3ccon3)cc2)n(Cc2ccc(Cl)cc2)c1=O [Compound I-2604]	7.68
O=C(O)Cn1c(=O)[nH]/c(=N\c2ccc(Oc3cccc(F)n3)cc2)n(Cc2ccc(Cl)cc2)c1=O [Compound I-2564]	6.57
Cc1ccc(Cn2c(=O)n(CC3(C(=O)O)COC3)c(=O)[nH]/c2=N\c2ccc(OC(C)C)c(Cl)c2)cc1 [Compound I-1495]	7.59
Cc1nsc(Oc2ccc(/N=c3\[nH]c(=O)n(CCCO)c(=O)n3Cc3ccc(F)cc3)cc2)n1 [Compound I-2606]	7.85
O=C(O)CCn1c(=O)[nH]/c(=N\c2ccc(Oc3ncccn3)cc2)n(Cc2ccc(Cl)cc2)c1=O [Compound I-2557]	7.72
CCn1c(=O)[nH]/c(=N\c2ccc(Oc3ccnc(C(=O)O)c3)c(OC)c2)n(Cc2ccc(Cl)cc2)c1=O [Compound I-2295]	> 8.40
O=c1[nH]/c(=N\c2ccc(Oc3cccc(O)n3)cc2)n(Cc2ccc(Cl)cc2)c(=O)n1CC(CO)CO [Compound I-2685]	7.92
